Laboratory results published in patent US7381705B2, “Inhibitors of hepatitis C virus” (The Administrators Of The Tulane Educational Fund, priority 2004, dated 2008).
Read-outs that look alike come from different tables or passages of the source. Ends that are not written are not given here.

Tested on: HCV pseudotype (HIV core proteins, HCV E1 and E2 of strain H77)
Conditions: for Percent inhibition: 25 μM; for Inhibition of HCV pseudotype infectivity (in words): summary of Tables 7 and 8
[1] = HCV J4 1b E2 peptides at ~25 μM, Table 8, controls as in Table 7
[2] = HCV H77 1a E2 peptides at ~25 μM, Table 7, virus alone 448,123

Molecule | Percent inhibition [%] | Luciferase units [1] | Luciferase units [2] | Inhibition of HCV pseudotype infectivity (in words)
CC(C)C[C@H](NC(=O)[C@H](CC(C)C)NC(=O)[C@H](CC(C)C)NC(=O)[C@@H]1CCCN1C(=O)[C@H](CO)NC(=O)[C@H](CC(C)C)NC(=O)[C@H](CCC(=O)O)NC(=O)[C@H](CO)NC(=O)[C@H](CCCNC(=N)N)NC(=O)[C@H](CC(=O)O)NC(=O)[C@H](CCCNC(=N)N)NC(=O)[C@H](CC(=O)O)NC(=O)[C@H](CCC(=O)O)NC(=O)[C@H](CC(C)C)NC(=O)[C@H](CC(N)=O)NC(=O)[C@@H](N)CS)C(=O)N[C@@H](CO)C(=O)N[C@H](C(=O)O)[C@@H](C)O [compound 113, CNLEDRDRSELSPLLLST] | −27.3 | 570,553 luciferase units (lumens) | – | –
CC[C@H](C)[C@H](NC(=O)[C@H](CCC(N)=O)NC(=O)[C@H](Cc1c[nH]c2ccccc12)NC(=O)[C@H](CCC(=O)O)NC(=O)[C@@H](NC(=O)[C@@H](NC(=O)[C@H](CO)NC(=O)[C@H](CC(C)C)NC(=O)[C@H](CC(C)C)NC(=O)[C@H](CC(C)C)NC(=O)[C@@H]1CCCN1C(=O)[C@H](CO)NC(=O)[C@H](CC(C)C)NC(=O)[C@H](CCC(=O)O)NC(=O)[C@H](CO)NC(=O)[C@@H](N)CCCNC(=N)N)[C@@H](C)O)[C@@H](C)O)C(=O)N[C@@H](CC(C)C)C(=O)N1CCC[C@H]1C(=O)O [compound 114, RSELSPLLLSTTEWQILP] | 39.7 | 270,190 luciferase units (lumens) | – | –
AFVSFAIKWEYILLLFLL [compound 119, AFVSFAIKWEYILLLFLL] | 84.6 | 69,220 luciferase units (lumens) | – | –
AGVDAETHVTGGSAGRTT [peptide 1, AGVDAETHVTGGSAGRTT] | 44.1 | – | 250,376 luciferase units (lumens) | –
AGVDGETHTTGRVAGHTT [compound 54, AGVDGETHTTGRVAGHTT] | 17.9 | 372,393 luciferase units (lumens) | – | –
AKQNIQLINTNGSWHINS [peptide 5, AKQNIQLINTNGSWHINS] | 89.3 | – | 48,000 luciferase units (lumens) | inhibitory
ARVCACLWMMLLIAQAEA [compound 121] | 24.5 | 338,200 luciferase units (lumens) | – | –
ARVCSCLWMMLLISQAEA [compound 49] | 31.4 | – | 307,310 luciferase units (lumens) | –
CDLEDRDRSELSPLLLST [compound 38, CDLEDRDRSELSPLLLST] | 23.0 | – | 345,110 luciferase units (lumens) | –
DTDVFVLNNTRPPLGNWF [compound 21, DTDVFVLNNTRPPLGNWF] | 45.9 | – | 242,223 luciferase units (lumens) | –
DWFAQGWGPITYTKPNSS [compound 89, DWFAQGWGPITYTKPNSS] | −0.3 | 449,293 luciferase units (lumens) | – | –
DYPYRLWHYPCTINYTIF [compound 32, DYPYRLWHYPCTINYTIF] | 81.0 | – | 85,086 luciferase units (lumens) | inhibitory
DYPYRLWHYPCTLNFSIF [compound 108, DYPYRLWHYPCTLNFSIF] | 90.9 | 40,853 luciferase units (lumens) | – | inhibitory
FYAHKFNSSGCPERMASC [compound 86] | 11.2 | 398,110 luciferase units (lumens) | – | –
FYQHKFNSSGCPERLASC [compound 9] | −11.8 | – | 501,126 luciferase units (lumens) | –
GHTTSGFTSLFSSGASQK [compound 81, GHTTSGFTSLFSSGASQK] | −7.3 | 480,623 luciferase units (lumens) | – | –
GNNTLLCPTDCFRKHPEA [compound 27] | −28.4 | – | 575,206 luciferase units (lumens) | –
GNRILICPTDCFRKHPEA [compound 103] | 31.8 | 305,690 luciferase units (lumens) | – | –
GNWFGCTWMNSTGFTKVC [compound 23] | 17.9 | – | 367,916 luciferase units (lumens) | –
GPISYANGSGLDERPYCW [compound 13, GPISYANGSGLDERPYCW] | 31.1 | – | 313,323 luciferase units (lumens) | –
GRTTAGLVGLLTPGAKQN [peptide 3, GRTTAGLVGLLTPGAKQN] | 0.05 | – | 447,906 luciferase units (lumens) | –
GSGLDERPYCWHYPPRPC [compound 14] | 37.6 | – | 279,626 luciferase units (lumens) | –
HINSTALNCNESLNTGWL [compound 7, HINSTALNCNESLNTGWL] | 14.9 | – | 381,340 luciferase units (lumens) | –
HPEATYSRCGSGPWITPR [compound 29, HPEATYSRCGSGPWITPR] | 33.6 | – | 297,353 luciferase units (lumens) | –
HPEATYTKCGSGPWLTPR [compound 105, HPEATYTKCGSGPWLTPR] | −23.2 | 552,170 luciferase units (lumens) | – | –
HRLEAACNWTRGERCDLE [compound 36] | −19.5 | – | 535,016 luciferase units (lumens) | –
HRLNAACNWTRGERCNLE [compound 111] | −39.2 | 632,613 luciferase units (lumens) | – | –
HVTGGSAGRTTAGLVGLL [peptide 2, HVTGGSAGRTTAGLVGLL] | 0.2 | – | 447,336 luciferase units (lumens) | –

Molecule | Percent inhibition [%] | Luciferase units [1] | Luciferase units [2] | Inhibition of HCV pseudotype infectivity (in words)
HYPCTINYTIFKVRMYVG [compound 33, HYPCTINYTIFKVRMYVG] | 95.0 | – | 22,406 luciferase units (lumens) | inhibitory
HYPCTLNFSIFKVRMYVG [compound 109, HYPCTLNFSIFKVRMYVG] | 79.4 | 96,893 luciferase units (lumens) | – | inhibitory
INTNGSWHINSTALNCNE [peptide 6, INTNGSWHINSTALNCNE] | −12.3 | – | 503,446 luciferase units (lumens) | –
ITPRCMVDYPYRLWHYPC [compound 31] | 6.4 | – | 419,263 luciferase units (lumens) | –
KCGSGPWLTPRCLVDYPY [compound 106] | 60.4 | 193,533 luciferase units (lumens) | – | –
KWEYVVLLFLLLADARVC [compound 47, KWEYVVLLFLLLADARVC] | 56.4 | – | 195,320 luciferase units (lumens) | –
LASCRRLTDFAQGWGPIS [compound 11, LASCRRLTDFAQGWGPIS] | 19.6 | – | 360,410 luciferase units (lumens) | –
LFLLLADARVCACLWMML [compound 120] | −3.4 | 463,243 luciferase units (lumens) | – | –
LFLLLADARVCSCLWMML [compound 48] | 35.1 | – | 290,786 luciferase units (lumens) | –
LLSTTEWQILPCAFTTLP [compound 115, LLSTTEWQILPCAFTTLP] | −6.2 | 475,713 luciferase units (lumens) | – | –
LLSTTQWQVLPCSFTTLP [compound 40, LLSTTQWQVLPCSFTTLP] | 1.3 | – | 442,346 luciferase units (lumens) | –
LTPRCLVDYPYRLWHYPC [compound 107] | 11.1 | 402,976 luciferase units (lumens) | – | –
MASCRPIDWFAQGWGPIT [compound 88, MASCRPIDWFAQGWGPIT] | 7.9 | 412,776 luciferase units (lumens) | – | –
MYVGGVEHRLEAACNWTR [compound 35, MYVGGVEHRLEAACNWTR] | 66.7 | – | 153,553 luciferase units (lumens) | –
NCNESLNTGWLAGLFYQH [compound 8, NCNESLNTGWLAGLFYQH] | 74.6 | – | 113,650 luciferase units (lumens) | –
NNTRPPLGNWFGCTWMNS [compound 22, NNTRPPLGNWFGCTWMNS] | 45.2 | – | 245,900 luciferase units (lumens) | –
NWTRGERCDLEDRDRSEL [compound 37, NWTRGERCDLEDRDRSEL] | −30.7 | – | 585,553 luciferase units (lumens) | –
PASQVCGPVYCFTPSPVV [compound 93] | 9.7 | 409,220 luciferase units (lumens) | – | –
PNSSDQRPYCWHYAPRPC [compound 90] | 5.5 | 423,326 luciferase units (lumens) | – | –
PTDCFRKHPEATYSRCGS [compound 28] | 11.9 | – | 394,780 luciferase units (lumens) | –
PTDCFRKHPEATYTKCGS [compound 104] | 6.3 | 419,876 luciferase units (lumens) | – | –
PVYCFTPSPVVVGTTDRS [compound 18, PVYCFTPSPVVVGTTDRS] | 2.9 | – | 435,026 luciferase units (lumens) | –
PVYCFTPSPVVVGTTDRS [compound 94, PVYCFTPSPVVVGTTDRS] | 30.4 | 311,736 luciferase units (lumens) | – | –
PYCWHYAPRPCGVVPASQ [compound 91] | 69.1 | 160,883 luciferase units (lumens) | – | –
QILPCAFTTLPALSTGLI [compound 116, QILPCAFTTLPALSTGLI] | 12.1 | 394,096 luciferase units (lumens) | – | –
QNIVDVQYLYGVGSSIAS [compound 44, QNIVDVQYLYGVGSSIAS] | 79.6 | – | 91,266 luciferase units (lumens) | inhibitory
QVLPCSFTTLPALSTGLI [compound 41, QVLPCSFTTLPALSTGLI] | 3.0 | – | 434,743 luciferase units (lumens) | –
